From ChEMBL document CHEMBL1124129, “Binding of steroids to the progestin and glucocorticoid receptors analyzed by correspondence analysis” (J Med Chem, 1988) come the findings set out here.

This experiment deals with T1, Glucocorticoid receptor (Rattus norvegicus) (UniProt P06536).
T1 sequence (whole entry): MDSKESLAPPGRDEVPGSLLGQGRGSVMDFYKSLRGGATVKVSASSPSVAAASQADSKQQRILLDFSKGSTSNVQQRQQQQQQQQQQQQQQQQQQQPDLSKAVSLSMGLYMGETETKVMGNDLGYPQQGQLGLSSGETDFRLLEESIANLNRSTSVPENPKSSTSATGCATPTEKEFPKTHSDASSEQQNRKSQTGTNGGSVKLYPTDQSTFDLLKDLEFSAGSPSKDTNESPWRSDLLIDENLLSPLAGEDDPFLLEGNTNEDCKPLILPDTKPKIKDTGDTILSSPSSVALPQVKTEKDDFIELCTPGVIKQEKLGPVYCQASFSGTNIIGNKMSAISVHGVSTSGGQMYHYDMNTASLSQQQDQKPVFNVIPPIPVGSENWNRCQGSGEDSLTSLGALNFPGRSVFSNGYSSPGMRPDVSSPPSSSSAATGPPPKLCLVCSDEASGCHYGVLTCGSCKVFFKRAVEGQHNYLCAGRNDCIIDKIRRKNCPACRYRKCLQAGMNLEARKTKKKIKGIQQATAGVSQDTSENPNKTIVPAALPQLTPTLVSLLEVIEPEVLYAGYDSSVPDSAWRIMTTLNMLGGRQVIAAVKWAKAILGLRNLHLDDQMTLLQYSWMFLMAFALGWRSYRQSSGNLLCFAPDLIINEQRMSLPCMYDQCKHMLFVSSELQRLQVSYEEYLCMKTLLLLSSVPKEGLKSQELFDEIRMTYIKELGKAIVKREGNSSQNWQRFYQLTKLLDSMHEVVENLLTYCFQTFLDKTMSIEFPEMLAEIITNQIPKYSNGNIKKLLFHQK
As to the kind of experiment: Relative binding affinity to glucocorticoid receptor on cytosol fromt hymus at 4 hr.

Molecules are shown by their SMILES.

`CC#C[C@]1(O)CCC2C3CCC4=CC(=O)CCC4=C3C(c3cccs3)CC21C` (stereo partly specified) showed an RBA of 270.
